Target: T1, SIRT1 (Homo sapiens, UniProt Q96EB6)
T1 sequence (Q96EB6 1-747): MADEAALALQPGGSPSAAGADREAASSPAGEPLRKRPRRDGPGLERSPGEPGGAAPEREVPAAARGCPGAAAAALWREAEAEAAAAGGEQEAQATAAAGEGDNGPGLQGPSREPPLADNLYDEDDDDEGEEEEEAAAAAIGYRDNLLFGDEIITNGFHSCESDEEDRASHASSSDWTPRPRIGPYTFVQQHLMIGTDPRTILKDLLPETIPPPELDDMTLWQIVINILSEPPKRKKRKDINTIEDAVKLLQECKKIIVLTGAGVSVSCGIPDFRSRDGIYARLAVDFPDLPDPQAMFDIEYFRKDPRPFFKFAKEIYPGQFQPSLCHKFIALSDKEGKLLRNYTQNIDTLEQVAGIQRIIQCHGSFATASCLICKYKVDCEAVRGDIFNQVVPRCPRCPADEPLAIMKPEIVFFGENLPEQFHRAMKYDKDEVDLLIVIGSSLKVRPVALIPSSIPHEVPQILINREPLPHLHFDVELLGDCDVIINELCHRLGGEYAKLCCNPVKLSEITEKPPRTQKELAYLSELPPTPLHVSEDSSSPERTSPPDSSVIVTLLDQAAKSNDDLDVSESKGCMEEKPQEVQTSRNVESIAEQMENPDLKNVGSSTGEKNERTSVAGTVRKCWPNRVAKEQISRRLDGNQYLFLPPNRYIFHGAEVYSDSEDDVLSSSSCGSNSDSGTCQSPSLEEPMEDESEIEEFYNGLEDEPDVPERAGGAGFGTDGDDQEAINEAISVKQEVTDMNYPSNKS
Assay: TAMRA based mass spectrometry assay of SIRT1 activity
Format: biochemical
Conditions: TAMRA peptide substrate; for TAMRA EC1.5 (μM): concentration of test compound giving 150% activation of SIRT1; for Emax: percent maximum fold activation of SIRT1, read-out: TAMRA % Fold Act
Text: Mass spectrometry based assays were used to identify modulators of SIRT1 activity. The TAMRA based assay utilized a peptide having 20 amino acid residues as follows: Ac-EE-K(biotin)-[…](Ac)NleSTEG-K(5TMR)-EE-NH2 (SEQ ID NO: 1), wherein K(Ac) is an acetylated lysine residue and Nle is a norleucine. The peptide was labeled with the fluorophore 5TMR (excitation 540 nm/emission 580 nm) at the C-terminus. The sequence of the peptide substrate was based on p53 with several modifications. In addition, the methionine residue naturally present in the sequence was replaced with the norleucine because the methionine may be susceptible to oxidation during synthesis and purification. The Trp based assay utilized a peptide having an amino acid residues as follows: Ac-R-H-K-K(Ac)-W-NH2 (SEQ ID NO: 2).
The TAMRA based mass spectrometry assay was conducted as follows: 0.5 μM peptide substrate and 120 μM βNAD^+ was incubated with 10 nM SIRT1 for 25 minutes at 25° C. in a reaction buffer (50 mM Tris-acetate pH 8, 137 mM NaCl, 2.7 mM KCl, 1 mM MgCl2, 5 mM DTT, 0.05% BSA). The SIRT1 protein was obtained by cloning the SirT1 gene into a T7-promoter containing vector, which was then transformed and expressed in BL21(DE3) bacterial cells. Test compound was added at varying concentrations to this reaction mixture and the resulting reactions were monitored. After the 25 minute incubation with SIRT1, 10 μL of 10% formic acid was added to stop the reaction. The resulting reactions were sealed and frozen for later mass spec analysis. Determination of the amount of deacetylated substrate peptide formed (or, alternatively, the amount of O-acetyl-ADP-ribose (OAADPR) generated) by the sirtuin-mediated NAD-dependent deacetylation reaction allowed for the precise measurement of relative SIRT1 activity in the presence of varying concentrations of the test compound versus control reactions lacking the test compound.
A control for inhibition of sirtuin activity was conducted by adding 1 μL of 500 mM nicotinamide as a negative control at the start of the reaction (e.g., permits determination of maximum sirtuin inhibition). A control for activation of sirtuin activity was conducted using 10 nM of sirtuin protein, with 1 μL of DMSO in place of compound, to determine the amount of deacetylation of the substrate at a given time point within the linear range of the assay. This time point was the same as that used for test compounds and, within the linear range, the endpoint represents a change in velocity.
For the above assay, SIRT1 protein was expressed and purified as follows. The SirT1 gene was cloned into a T7-promoter containing vector and transformed into BL21(DE3). The protein was expressed by induction with 1 mM IPTG as an N-terminal His-tag fusion protein at 18° C. overnight and harvested at 30,000×g. Cells were lysed with lysozyme in lysis buffer (50 mM Tris-HCl, 2 mM Tris[2-carboxyethyl]phosphine (TCEP), 10 μM ZnCl2, 200 mM NaCl) and further treated with sonication for […] for complete lysis. The protein was purified over a Ni-NTA column (Amersham) and fractions containing pure protein were pooled, concentrated and run over a sizing column (Sephadex S200 26/60 global). The peak containing soluble protein was collected and run on an Ion-exchange column (MonoQ). Gradient elution (200 mM-500 mM NaCl) yielded pure protein. This protein was concentrated and dialyzed against dialysis buffer (20 mM Tris-HCl, 2 mM TCEP) overnight. The protein was aliquoted and frozen at −80° C. until further use.

With O=C(NCc1cccnc1)c1cnc2ccc(-c3cccc(C(F)(F)F)c3)nn12 [Compound 1] the “TAMRA EC1.5 (μM)” value was “B (EC1.5 1-25 μM)” and the Emax was less than 350%.

For O=C(Nc1nccs1)c1cnc2ccc(-c3cccc(C(F)(F)F)c3)nn12 [Compound 3], the “TAMRA EC1.5 (μM)” value was “B (EC1.5 1-25 μM)” and the Emax was less than 350%.

In the case of O=C(Nc1ccccn1)c1cnc2ccc(-c3cccc(C(F)(F)F)c3)nn12 [Compound 4, N-(pyridin-2-yl)-6-(3-(trifluoromethyl)phenyl)imidazo[1,2-b]pyridazine-3-carboxamide], the “TAMRA EC1.5 (μM)” value was “B (EC1.5 1-25 μM)” and the Emax was less than 350%.

With O=C(Nc1nc(CN2CCOCC2)cs1)c1cnc2ccc(-c3cccc(C(F)(F)F)c3)nn12 [Compound 6] the “TAMRA EC1.5 (μM)” value was “A (EC1.5<1 μM)” and the Emax was no less than 350%.

O=C(Nc1nccs1)c1cnc2ccc(-c3cccc(OC(F)(F)F)c3)nn12 [Compound 7] was tested, and the “TAMRA EC1.5 (μM)” value was “B (EC1.5 1-25 μM)” and the Emax was less than 350%.

O=C(Nc1nccs1)c1cnc2ccc(-c3cccc(N4CCOCC4)c3)nn12 [Compound 9] was tested, and the “TAMRA EC1.5 (μM)” value was “C (EC1.5>25 μM)” and the Emax was less than 350%.

In the case of O=C(Nc1ccccn1)c1cnc2ccc(-c3cccc(N4CCOCC4)c3)nn12 [Compound 10], the “TAMRA EC1.5 (μM)” value was “B (EC1.5 1-25 μM)” and the Emax was less than 350%.

With CS(=O)(=O)c1cccc(-c2ccc3ncc(C(=O)Nc4ccccn4)n3n2)c1 [Compound 12] the “TAMRA EC1.5 (μM)” value was “C (EC1.5>25 μM)” and the Emax was less than 350%.

For O=C(Nc1nccs1)c1cnc2ccc(-c3ccccc3OC(F)(F)F)nn12 [Compound 13], the “TAMRA EC1.5 (μM)” value was “A (EC1.5<1 μM)” and the Emax was no less than 350%.

With O=C(Nc1nccs1)c1cnc2ccc(-c3ccccc3C(F)(F)F)nn12 [Compound 15] the “TAMRA EC1.5 (μM)” value was “B (EC1.5 1-25 μM)” and the Emax was no less than 350%.

In the case of O=C(Nc1ccccn1)c1cnc2ccc(-c3ccccc3C(F)(F)F)nn12 [Compound 16], the “TAMRA EC1.5 (μM)” value was “A (EC1.5<1 μM)” and the Emax was no less than 350%.

O=C(Nc1ccncn1)c1cnc2ccc(-c3cccc(C(F)(F)F)c3)nn12 [Compound 18] was tested, and the “TAMRA EC1.5 (μM)” value was “B (EC1.5 1-25 μM)” and the Emax was less than 350%.

With O=C(Nc1cccc(CN2CCOCC2)n1)c1cnc2ccc(-c3ccccc3C(F)(F)F)nn12 [Compound 19, N-(6-(morpholinomethyl)pyridin-2-yl)-6-(2-(trifluoromethyl)phenyl)imidazo[1,2-b]pyridazine-3-carboxamide] the “TAMRA EC1.5 (μM)” value was “A (EC1.5<1 μM)” and the Emax was no less than 350%.

O=C(Nc1cccc(N2CCOCC2)n1)c1cnc2ccc(-c3ccccc3C(F)(F)F)nn12 [Compound 21] was tested, and the “TAMRA EC1.5 (μM)” value was “A (EC1.5<1 μM)” and the Emax was no less than 350%.

With O=C(Nc1cccc(N2CCCC2)n1)c1cnc2ccc(-c3ccccc3C(F)(F)F)nn12 [Compound 22] the “TAMRA EC1.5 (μM)” value was “A (EC1.5<1 μM)” and the Emax was no less than 350%.

In the case of O=C(Nc1ccnc(N2CCOCC2)c1)c1cnc2ccc(-c3ccccc3C(F)(F)F)nn12 [Compound 24], the “TAMRA EC1.5 (μM)” value was “B (EC1.5 1-25 μM)” and the Emax was no less than 350%.

For O=C(Nc1nc(CN2CCOCC2)cs1)c1cnc2ccc(-c3cccc(Cl)c3)nn12 [Compound 27], the “TAMRA EC1.5 (μM)” value was “A (EC1.5<1 μM)” and the Emax was no less than 350%.

O=C(Nc1cccc(CN2CCOCC2)n1)c1cnc2ccc(-c3cccc(F)c3)nn12 [Compound 28] was tested, and the “TAMRA EC1.5 (μM)” value was “A (EC1.5<1 μM)” and the Emax was less than 350%.

For O=C(Nc1cccc(CN2CCOCC2)n1)c1cnc2ccc(-c3cc(F)ccc3F)nn12 [Compound 30], the “TAMRA EC1.5 (μM)” value was “B (EC1.5 1-25 μM)” and the Emax was less than 350%.

With O=C(Nc1nc(CN2CCOCC2)cs1)c1cnc2ccc(-c3cc(F)ccc3F)nn12 [Compound 31] the “TAMRA EC1.5 (μM)” value was “B (EC1.5 1-25 μM)” and the Emax was less than 350%.

In the case of O=C(Nc1nccs1)c1cnc2ccc(-c3ccccc3C(F)F)nn12 [Compound 33, 6-(2-(difluoromethyl)phenyl)-N-(thiazol-2-yl)imidazo[1,2-b]pyridazine-3-carboxamide], the “TAMRA EC1.5 (μM)” value was “B (EC1.5 1-25 μM)” and the Emax was less than 350%.

O=C(Nc1cccc(N2CCOCC2)n1)c1cnc2ccc(-c3ccccc3C(F)F)nn12 [Compound 36] was tested, and the “TAMRA EC1.5 (μM)” value was “A (EC1.5<1 μM)” and the Emax was no less than 350%.

With O=C(Nc1cccc(N2CCCC2)n1)c1cnc2ccc(-c3ccccc3C(F)F)nn12 [Compound 37] the “TAMRA EC1.5 (μM)” value was “A (EC1.5<1 μM)” and the Emax was no less than 350%.

For O=C(Nc1ccnc(N2CCOCC2)c1)c1cnc2ccc(-c3ccccc3C(F)F)nn12 [Compound 39], the “TAMRA EC1.5 (μM)” value was “A (EC1.5<1 μM)” and the Emax was no less than 350%.

O=C(Nc1ccnc(N2CCCC2)c1)c1cnc2ccc(-c3ccccc3C(F)F)nn12 [Compound 40] was tested, and the “TAMRA EC1.5 (μM)” value was “A (EC1.5<1 μM)” and the Emax was no less than 350%.

In the case of O=C(Nc1nc(CN2CCOCC2)cs1)c1cnc2ccc(-c3ccc(F)cc3F)nn12 [Compound 42], the “TAMRA EC1.5 (μM)” value was “B (EC1.5 1-25 μM)” and the Emax was less than 350%.

With O=C(Nc1cccc(CN2CCOCC2)n1)c1cnc2ccc(-c3cc(F)cc(F)c3)nn12 [Compound 45] the “TAMRA EC1.5 (μM)” value was “B (EC1.5 1-25 μM)” and the Emax was less than 350%.

With O=C(Nc1nc(CN2CCOCC2)cs1)c1cnc2ccc(-c3cc(F)cc(F)c3)nn12 [Compound 46] the “TAMRA EC1.5 (μM)” value was “B (EC1.5 1-25 μM)” and the Emax was less than 350%.

In the case of O=C(Nc1nc(CN2CCOCC2)cs1)c1cnc2ccc(-c3cccc(F)c3F)nn12 [Compound 48], the “TAMRA EC1.5 (μM)” value was “B (EC1.5 1-25 μM)” and the Emax was no less than 350%.

With O=C(Nc1cccc(N2CCC2)n1)c1cnc2ccc(-c3ccccc3C(F)(F)F)nn12 [Compound 49] the “TAMRA EC1.5 (μM)” value was “A (EC1.5<1 μM)” and the Emax was no less than 350%.

In the case of O=C(Nc1ccnc(N2CCC2)c1)c1cnc2ccc(-c3ccccc3C(F)F)nn12 [Compound 52], the “TAMRA EC1.5 (μM)” value was “A (EC1.5<1 μM)” and the Emax was no less than 350%.

Cc1noc(C)c1-c1ccc2ncc(C(=O)Nc3ccnc(N4CCCC4)c3)n2n1 [Compound 54, 6-(3,5-dimethylisoxazol-4-yl)-N-(2-(pyrrolidin-1-yl)pyridin-4-yl)imidazo[1,2-b]pyridazine-3-carboxamide] was tested, and the “TAMRA EC1.5 (μM)” value was “C (EC1.5>25 μM)” and the Emax was less than 350%.

For Cc1noc(C)c1-c1ccc2ncc(C(=O)Nc3ccnc(N4CCC4)c3)n2n1 [Compound 55], the “TAMRA EC1.5 (μM)” value was “C (EC1.5>25 μM)” and the Emax was less than 350%.

Cn1cc(-c2ccc3ncc(C(=O)Nc4ccnc(N5CCCC5)c4)n3n2)cn1 [Compound 57] was tested, and the “TAMRA EC1.5 (μM)” value was “C (EC1.5>25 μM)” and the Emax was less than 350%.

For Cc1ncccc1-c1ccc2ncc(C(=O)Nc3cccc(N4CCOCC4)n3)n2n1 [Compound 58], the “TAMRA EC1.5 (μM)” value was “B (EC1.5 1-25 μM)” and the Emax was less than 350%.

For O=C(Nc1cccc(N2CCOCC2)n1)c1cnc2ccc(-c3cncc(C(F)F)c3)nn12 [Compound 60], the “TAMRA EC1.5 (μM)” value was “A (EC1.5<1 μM)” and the Emax was less than 350%.

O=C(Nc1ccnc(N2CCCC2)c1)c1cnc2ccc(-c3cncc(C(F)F)c3)nn12 [Compound 61] was tested, and the “TAMRA EC1.5 (μM)” value was “B (EC1.5 1-25 μM)” and the Emax was less than 350%.

— US9957271B2, “Substituted bicyclic aza-heterocycles and analogues as sirtuin modulators” (GlaxoSmithKline, LLC, priority 2012, dated 2018)
